According to patent US10703757B2, “Compounds and methods for CDK8 modulation and indications therefor” (Plexxikon Inc., priority 2016, dated 2020):

How the values were obtained:
[1] = test system: CDK8 (TCF/LEF luciferase reporter in HCT116 cells); test: Cell based TCF/LEF reporter assay (HCT116+TCF/LEF luciferase); conditions: Homo sapiens, HCT-116, 24 h
Description: Determine Inhibitor Activity Against CDK8 in Cell Based TCF/LEF Reporter Assay
The colorectal carcinoma cell line HCT116 was stably transduced with lentivirus encoding the TCF/LEF promoter upstream of a luciferase reporter gene (Qiagen) and single cell clones expressing this construct (referred to as HCT116+TCF/LEF) were isolated. HCT116 express endogenous mutant β-catenin^3, resulting in up-regulation of transcription through the TCF/LEF promoter. Expression of the TCF/LEF reporter construct in HCT116 results in constitutive expression of luciferase. Treatment of the cells with inhibitors of components of the β-catenin signaling pathway (such as CDK8) results in decreased expression of luciferase. The assay is performed as follows. The HCT116+TCF/LEF cell line is seeded in a 96 well plate in 50 μL of culture media at 1×10^4 cells/well and incubated at 37° C. overnight. Serial dilutions of compounds (in total volume of 50 μL culture media) are added to the cells and incubated at 37° C. for 24 hours. 4 wells of DMSO treated cells serve as high controls and cells treated with 10 uM of the reference compound CCT251545 (a known CDK8 inhibitor)^4 serve as low controls. The viability of the cells is assayed by the addition of […] reagent (Promega) followed by 30 minute incubation at 37° C. and quantification of the fluorescent signal (Ex400/Em505). The luciferase expression is then assayed by the addition of 25 μL ONE-Glo reagent (Promega) followed by 10 minute incubation at room temperature and quantification of the luminescence signal. The luminescence signal is normalized to the fluorescence signal to correct for any loss in cell viability over the 24 hour compound incubation period. The percentage inhibition at individual concentrations relative to high and low controls is calculated. The data are analyzed by using nonlinear regression to generate IC50 values.

[2] = test system: CDK8 (phosphorylation of STAT1 at serine 727 in A549 cells); test: Cell based Phospho-STAT1 assay (IFNγ-stimulated A549 cells, AlphaLISA); conditions: Homo sapiens, A549, A549 cells, phospho-STAT1 after IFNγ stimulation
How it was run: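 A549 cells given serial compound dilutions for 1 h at 37 °C, then stimulated with IFNγ at 10 ng/mL final for 30 min. Lysate STAT1 Ser727 phosphorylation measured by AlphaLISA; % inhibition vs stimulated/unstimulated DMSO controls, IC50 by nonlinear regression.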

Compound	IC50 [1]	IC50 [2]
Cn1cc(-c2ccc(-c3cnc4cccc(N5CCC6(CC5)C(=O)Nc5ccccc56)n34)cc2)cn1 [Compound P-0454, 1′-(3-(4-(1-methyl-1H-pyrazol-4-yl)phenyl)imidazo[1,2-a]pyridin-5-yl)spiro[indoline-3,4′-piperidin]-2-one]	0.1 to 100 nM	0.1 to 100 nM
Cc1ccc2cc(-c3cnn4cccc(N5CCC6(CCNC6=O)CC5)c34)ccc2n1 [Compound P-0168, 8-(3-(2-methylquinolin-6-yl)pyrazolo[1,5-a]pyridin-4-yl)-2,8-diazaspiro[4.5]decan-1-one]	0.1 to 100 nM	0.1 to 100 nM
COc1ncc(C#Cc2cnc3cccc(N4CCC(C#N)CC4)n23)cn1 [Compound P-0313, 1-(3-((2-methoxypyrimidin-5-yl)ethynyl)imidazo[1,2-a]pyridin-5-yl)piperidine-4-carbonitrile]	100 to 1000 nM	100 to 1000 nM
N#CCCn1cc(-c2ccc(-c3cnn4ccnc(C5=CCC(C#N)CC5)c34)cc2)cn1 (centres unmarked) [Compound P-0100, 4-(3-(4-(1-(2-cyanoethyl)-1H-pyrazol-4-yl)phenyl)pyrazolo[1,5-a]pyrazin-4-yl)cyclohex-3-ene-1-carbonitrile]	0.1 to 100 nM	0.1 to 100 nM
N#CC1CC=C(c2cccn3ncc(-c4ccc(OCCN5CCCCC5)cc4)c23)CC1 (centres unmarked) [Compound P-0181, 4-(3-(4-(2-(piperidin-1-yl)ethoxy)phenyl)pyrazolo[1,5-a]pyridin-4-yl)cyclohex-3-ene-1-carbonitrile]	0.1 to 100 nM	0.1 to 100 nM
CC(C)(O)Cn1cc(-c2ccc(-c3cnc4[nH]ccc4c3N3CCC(C#N)CC3)cc2)cn1 [Compound P-0329, 1-(5-(4-(1-(2-hydroxy-2-methylpropyl)-1H-pyrazol-4-yl)phenyl)-1H-pyrrolo[2,3-b]pyridin-4-yl)piperidine-4-carbonitrile]	0.1 to 100 nM	0.1 to 100 nM
CC(C)(C#Cc1cccn2ncc(-c3ccc(-c4cnn(CCCC#N)c4)cc3)c12)C(N)=O [Compound P-0461, 4-(3-(4-(1-(3-cyanopropyl)-1H-pyrazol-4-yl)phenyl)pyrazolo[1,5-a]pyridin-4-yl)-2,2-dimethylbut-3-ynamide]	0.1 to 100 nM	0.1 to 100 nM
Cn1cc(-c2ccc(-c3cnn4cccc(C5=CCC(C#N)CC5)c34)cc2)cn1 (centres unmarked) [Compound P-0452, 4-(3-(4-(1-methyl-1H-pyrazol-4-yl)phenyl)pyrazolo[1,5-a]pyridin-4-yl)cyclohex-3-ene-1-carbonitrile]	0.1 to 100 nM	0.1 to 100 nM
CC(C)(C#Cc1nccn2ncc(-c3ccc4cc(NS(C)(=O)=O)ccc4c3)c12)C(N)=O [Compound P-0115, 2,2-dimethyl-4-(3-(6-(methylsulfonamido)naphthalen-2-yl)pyrazolo[1,5-a]pyrazin-4-yl)but-3-ynamide]	0.1 to 100 nM	0.1 to 100 nM
Cn1cc(C#Cc2cnc3cccc(N4CCC5(CC4)CNC(=O)O5)n23)cn1 [Compound P-0277, 8-(3-((1-methyl-1H-pyrazol-4-yl)ethynyl)imidazo[1,2-a]pyridin-5-yl)-1-oxa-3,8-diazaspiro[4.5]decan-2-one]	1000 to 10000 nM	1000 to 10000 nM
Cn1cc(-c2ccc(-c3cnn4ccnc(C5=CCC(C(N)=O)CC5)c34)cc2)cn1 (centres unmarked) [Compound P-0280, 4-(3-(4-(1-methyl-1H-pyrazol-4-yl)phenyl)pyrazolo[1,5-a]pyrazin-4-yl)cyclohex-3-ene-1-carboxamide]	0.1 to 100 nM	0.1 to 100 nM
N#CC1CC=C(c2c(-c3ccc4c(c3)C(=O)NC4)cnc3[nH]ccc23)CC1 (centres unmarked) [Compound P-0207, 4-(5-(3-oxoisoindolin-5-yl)-1H-pyrrolo[2,3-b]pyridin-4-yl)cyclohex-3-ene-1-carbonitrile]	100 to 1000 nM	1000 to 10000 nM
N#CC1CCN(c2cccn3ncc(-c4ccc(OCCN5CCOCC5)cc4)c23)CC1 [Compound P-0261, 1-(3-(4-(2-morpholino-ethoxy)phenyl)pyrazolo[1,5-a]pyridin-4-yl)piperidine-4-carbonitrile]	0.1 to 100 nM	0.1 to 100 nM
Cn1cc(-c2ccc(-c3cnn4cccc(C#CC(C)(C)O)c34)cc2)cn1 [Compound P-0429, 2-methyl-4-[3-[4-(1-methylpyrazol-4-yl)phenyl]pyrazolo[1,5-a]pyridin-4-yl]but-3-yn-2-ol]	0.1 to 100 nM	0.1 to 100 nM
Cc1c(-c2ccc(-c3cnn4cccc(C#CC(C)(C)O)c34)cc2)cnn1C [Compound P-0230, 4-(3-(4-(1,5-dimethyl-1H-pyrazol-4-yl)phenyl)pyrazolo[1,5-a]pyridin-4-yl)-2-methylbut-3-yn-2-ol]	0.1 to 100 nM	0.1 to 100 nM
Cc1ncc(-c2cnn3ccnc(C4=CCC(C#N)CC4)c23)s1 (centres unmarked) [Compound P-0077, 4-(3-(2-methylthiazol-5-yl)pyrazolo[1,5-a]pyrazin-4-yl)cyclohex-3-ene-1-carbonitrile]	100 to 1000 nM	100 to 1000 nM
N#CC1CCN(c2cccn3ncc(-c4ccc(NC(=O)OCc5ccccc5)cc4)c23)CC1 [Compound P-0259, benzyl (4-(4-(4-cyanopiperidin-1-yl)pyrazolo[1,5-a]pyridin-3-yl)phenyl)carbamate]	100 to 1000 nM	100 to 1000 nM
N#CC1CCN(c2cccn3ncc(-c4ccc(OCc5ccccc5)cc4)c23)CC1 [Compound P-0267, 1-(3-(4-(benzyloxy)phenyl)pyrazolo[1,5-a]pyridin-4-yl)piperidine-4-carbonitrile]	100 to 1000 nM	100 to 1000 nM
Cn1cc(-c2ccc(-c3cnn4cccc(C#CCOCCO)c34)cc2)cn1 [Compound P-0245, 2-((3-(3-(4-(1-methyl-1H-pyrazol-4-yl)phenyl)pyrazolo[1,5-a]pyridin-4-yl)prop-2-yn-1-yl)oxy)ethan-1-ol]	100 to 1000 nM	0.1 to 100 nM

The remaining lines, values ahead:

IC50 [1]	IC50 [2]	Compound
100 to 1000 nM	0.1 to 100 nM	N#CC1CCC(c2nccn3ncc(-c4ccc5c(cnn5C5CCCCO5)c4)c23)CC1 (centres unmarked) [Compound P-0109, 4-(3-(1-(tetrahydro-2H-pyran-2-yl)-1H-indazol-5-yl)pyrazolo[1,5-a]pyrazin-4-yl)cyclohexane-1-carbonitrile]
0.1 to 100 nM	0.1 to 100 nM	CC(=O)Nc1cc(-c2cnn3ccnc(C4=CCC(C#N)CC4)c23)ccn1 (centres unmarked) [Compound P-0080, N-(4-(4-(4-cyanocyclohex-1-ene-1-yl)pyrazolo[1,5-a]pyrazin-3-yl)pyridin-2-yl)acetamide]
0.1 to 100 nM	0.1 to 100 nM	CC(C)(O)c1ccc(-c2cnn3ccnc(C4=CCC(C#N)CC4)c23)cc1 (centres unmarked) [Compound P-0040, 4-(3-(4-(2-hydroxypropan-2-yl)phenyl)pyrazolo[1,5-a]pyrazin-4-yl)cyclohex-3-ene-1-carbonitrile]
100 to 1000 nM	0.1 to 100 nM	Cn1ncc2cc(-c3cnn4cccc(C#CC5(O)COC5)c34)ccc21 [Compound P-0362, 3-((3-(1-methyl-1H-indazol-5-yl)pyrazolo[1,5-a]pyridin-4-yl)ethynyl)oxetan-3-ol]
0.1 to 100 nM	0.1 to 100 nM	N#CC1CCC(c2nccn3ncc(-c4ccc(-c5cnn(CCF)c5)cc4)c23)CC1 (centres unmarked) [Compound P-0007, (1s,4s)-4-(3-(4-(1-(2-fluoroethyl)-1H-pyrazol-4-yl)phenyl)pyrazolo[1,5-a]pyrazin-4-yl)cyclohexane-1-carbonitrile]
100 to 1000 nM	0.1 to 100 nM	N#CC1CC=C(c2nccn3ncc(-c4ccc(OCCCN5CCCCC5)cc4)c23)CC1 (centres unmarked) [Compound P-0086, 4-(3-(4-(3-(piperidin-1-yl)propoxy)phenyl)pyrazolo[1,5-a]pyrazin-4-yl)cyclohex-3-ene-1-carbonitrile]
0.1 to 100 nM	100 to 1000 nM	CS(=O)(=O)Nc1ccc(-c2cnn3ccnc(C4=CCC(C#N)CC4)c23)cc1 (centres unmarked) [Compound P-0045, N-(4-(4-(4-cyanocyclohex-1-en-1-yl)pyrazolo[1,5-a]pyrazin-3-yl)phenyl)methanesulfonamide]
0.1 to 100 nM	0.1 to 100 nM	N#CC1CC=C(c2nccn3ncc(-c4ccc(-c5cnn(CC(N)=O)c5)cc4)c23)CC1 (centres unmarked) [Compound P-0027, 2-(4-(4-(4-(4-cyanocyclohex-1-en-1-yl)pyrazolo[1,5-a]pyrazin-3-yl)phenyl)-1H-pyrazol-1-yl)acetamide]
0.1 to 100 nM	0.1 to 100 nM	N#CC1CC=C(c2cccn3ncc(-c4ccc(OCC5CCCCO5)cc4)c23)CC1 (centres unmarked) [Compound P-0182, 4-(3-(4-((tetrahydro-2H-pyran-2-yl)methoxy)phenyl)pyrazolo[1,5-a]pyridin-4-yl)cyclohex-3-ene-1-carbonitrile]
